{"source": "patent US10934346B2", "about": "“Modified T cell comprising a polynucleotide encoding an inducible stimulating molecule comprising MyD88, CD40 and FKBP12” (priority 2014, dated 2021)", "key": {"cells": {"tested_on": "cells", "assay": "Amount of AP1903 needed in vitro for effective signaling of cells", "format": "cell-based", "protocol": "The fixed dose of AP1903 for injection used, for example, may be 0.4 mg/kg intravenously infused over 2 hours. The amount of AP1903 needed in vitro for effective signaling of cells is about 10-100 nM (MW: 1412 Da). This equates to 14-140 μg/L or ˜0.014-0.14 mg/kg ([…]). The dosage may vary according to the application, and may, in certain examples, be more in the range of 0.1-10 nM, or in the range of 50-150 nM, 10-200 nM, 75-125 nM, 100-500 nM, 100-600 nM, 100-700 nM, 100-800 nM, or 100-900 nM. Doses up to 1 mg/kg were well-tolerated in the Phase I study of AP1903 described above."}, "iMC-modified T cells": {"tested_on": "iMC-modified T cells", "assay": "Titration of rimiducid on iMC-transduced T cells (T cell activation)", "format": "cell-based, human", "source_text": "Cytokine and chemokine production. […] CAR and iMC signaling."}, "primary T cells": {"tested_on": "primary T cells", "assay": "Activation of primary T cells with iMyD88, iCD40 or iMC after AP1903 (cytokine ELISA)", "settings": "iMC", "experimental": "To examine whether MyD88, CD40 or both molecules should be included as endodomains in potential chimeric antigen receptor constructs, four distinct vectors were designed containing the AP1903-binding domains only (Fv′Fv), or genetically fused with MyD88 (iMyD88), CD40 (iCD40) or with both MyD88 and CD40 (iMC) (FIG. 41a). […] The ability of iMyD88, iCD40 or iMC to activate T cells following exposure to AP1903 by measuring IFN-γ and IL-6 production by ELISA was then assayed.\nA set of experiments was performed to examine whether MyD88, CD40 or both components were required for optimum T cell stimulation using the iMC molecule."}, "B16-F10 melanoma cells": {"tested_on": "B16-F10 melanoma cells", "assay": "IL-6 ELISA of adenovirus-transduced B16-F10 melanoma cells with AP1903", "format": "cell-based", "protocol": "Adenoviruses were added at 1000, 2000, 4000, 8000 and 16000 virus/cell ratio and cells were incubated for 24 hours. Then, 100 nM of AP1903 was added to all the wells, and the following day the cells and culture supernatants were harvested. A. Cells were labeled with anti-human PSMA antibody, LNI-17, (Biolegend, San Diego, Calif.) and PSMA expression was analyzed by flow cytometry. Represented is the percentage of PSMA^+ cells when compared to non-transduced cells. B. IL-6 was evaluated from the culture supernatants by ELISA (e-Bioscience, San Diego, Calif.). FIG. 28 provides the results of the assay at a different multiplicity of infection and plating concentration. B16 melanomas were cultured at 50,000 cells/ml/well in 24-well plates. Adenoviruses were added at 6000, 12000, 18000, 24000 and 30000 virus/cell ratio and cells were incubated for 24 hours. Then, 100 nM of AP1903 was added to all the wells, and the following day the cells and culture supernatants were harvested. A. Cells were labeled with anti-human PSMA antibody, LNI-17, (Biolegend, San Diego, Calif.) and PSMA expression was analyzed by flow cytometry. Represented is the percentage of PSMA^+ cells when compared to non-transduced cells. B. IL-6 was evaluated from the culture supernatants by ELISA (e-Bioscience, San Diego, Calif.). […] IL-6 was evaluated from the culture supernatants by ELISA (e-Bioscience, San Diego, Calif.)"}, "[1]": {"tested_on": "T cells transduced with RV-172 (iMC)", "assay": "AP1903-induced T cell activation, 27-plex cytokine/chemokine bead array", "format": "cell-based, human", "settings": "10 nM AP1903, 24 hours, RV-172 T cells", "protocol": "5. To assess AP1903-dependent T cell activation of T cells, 1×10^5 non-transduced (NT) or T cells transduced with the control retrovirus (RV-171) or the retrovirus containing iMC (RV-172) were plated in triplicate in 96-well plates and cultured at 37° C. 5% CO2 with media alone, or media containing 10 nM AP1903. 6. After 24 hours, the cells were gently mixed and the plate was centrifuged. Supernatant was then collected and plated into a BIOPLEX Human Cytokine/Chemokine 27-plex plate, which measures the following cytokines and chemokines: • a. Basic-FGF, G-CSF, GM-CSF, IFN-gamma, IL-1Ra, IL-1beta, IL-2, IL-4, IL-5, IL-6, […], IL-7, […], IL-9, IL-10, IL-12p70, IL-13, IL-15, IL-17RA, eotaxin, IP10, MCP-1, MIP-1alpha, MIP-1beta, PDGF-bb, RANTES, TNF-alpha and VEGF. • b. The cytokines and chemokines in the supernatants were subsequently measured and compared to standards in the plate using a BIOPLEX MAGPIX Multiplex Reader.\nT cells were stimulated with 10 nM AP1903 for 24 hours then supernatants were assayed for cytokine levels."}}}
{"smiles": "CC[C@H](C(=O)N1CCCC[C@H]1C(=O)O[C@H](CCc1ccc(OC)c(OC)c1)c1cccc(OCC(=O)NCCNC(=O)COc2cccc([C@@H](CCc3ccc(OC)c(OC)c3)OC(=O)[C@@H]3CCCCN3C(=O)[C@@H](CC)c3cc(OC)c(OC)c(OC)c3)c2)c1)c1cc(OC)c(OC)c(OC)c1", "note": "(relative stereo) [rimiducid, 2-Piperidinecarboxylic acid, 1-[(2S)-1-oxo-2-(3,4,5-trimethoxyphenyl)butyl]-, 1,2-ethanediylbis [imino(2-oxo-2,1-ethanediyl)oxy-3,1-phenylene[(1R)-3-(3,4-Dimethoxyphenyl)propylidene]] ester, [2S-[1(R*),2R*[S*[S*[1(R*),2R*]]]]]-(9Cl)]", "values": [{"measurement": "amount needed in vitro for effective signaling of cells", "setting": "cells", "value": "10 to 100", "unit": "nM"}, {"measurement": "amount needed for effective signaling, converted", "setting": "cells; MW: 1412 Da", "value": "14 to 140", "unit": "µg/L"}, {"measurement": "EC50", "setting": "iMC-modified T cells; Homo sapiens, T-cell, FIG. 1b, read-out: EC50, activation of T cells through the iMC switch", "value": "~0.12", "unit": "nM"}, {"measurement": "activation of iMC-transduced T cells", "setting": "iMC-modified T cells; […]", "value": "dose-dependent activation"}, {"measurement": "IL-1 secretion", "setting": "primary T cells", "value": "IL-1a and β are secreted"}, {"measurement": "IL-6 production", "setting": "B16-F10 melanoma cells; 100 nM AP1903", "value": "response to AP1903 by producing IL-6"}, {"measurement": "IL-6 production without ligand", "setting": "B16-F10 melanoma cells; presence and absence of AP1903", "value": "transduced cells produce IL-6 without the addition of AP1903"}, {"measurement": "cytokines and chemokines induced", "setting": "[1]", "value": "GM-CSF, IFN-gamma, IL-13, IL-4, IL-5, IL-6, IL-8, IL-1beta, IL-12p70, IP10, MIP-1alpha, MIP-1beta, RANTES, and TNF-alpha"}, {"measurement": "cytokines and chemokines not induced", "setting": "[1]", "value": "Basic-FGF, G-CSF, IL-1Ra, IL-2, IL-7, IL-9, IL-10, IL-15, IL-17RA, eotaxin, MCP-1, PDGF-bb and VEGF"}]}
